# From US6387893B1, “Spirotricyclic substituted azacycloalkane derivatives and uses thereof” (Merck & Co., Inc., priority 1999, dated 2002)
# pKi: −log10 of the molar value. Structures can show the parent of a compound that is named as a salt.
# Molecular target: T1, human alpha 1a adrenergic receptor (Homo sapiens, UniProt P35348)
# T1 sequence (P35348 1-466): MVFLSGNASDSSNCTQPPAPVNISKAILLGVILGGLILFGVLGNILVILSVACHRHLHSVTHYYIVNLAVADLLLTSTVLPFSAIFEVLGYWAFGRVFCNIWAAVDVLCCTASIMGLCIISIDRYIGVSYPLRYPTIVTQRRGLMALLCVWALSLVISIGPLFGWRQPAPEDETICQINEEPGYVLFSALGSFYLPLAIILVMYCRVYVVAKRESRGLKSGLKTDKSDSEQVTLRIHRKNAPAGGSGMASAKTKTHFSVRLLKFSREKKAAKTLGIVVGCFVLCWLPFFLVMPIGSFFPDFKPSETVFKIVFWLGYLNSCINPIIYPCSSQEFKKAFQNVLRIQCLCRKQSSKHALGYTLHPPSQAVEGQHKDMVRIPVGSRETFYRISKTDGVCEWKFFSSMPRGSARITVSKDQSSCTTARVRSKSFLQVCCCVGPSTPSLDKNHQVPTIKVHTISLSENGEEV
# Experiment: Screening assay: alpha 1a adrenergic receptor binding ([125I]-HEAT competition)
# Details: membranes from stably transfected human alpha 1a cell line (ATCC CRL 11140), 100 pM [125I]-HEAT
# Protocol: Screening Assay: Alpha 1a Adrenergic Receptor Binding
# Membranes prepared from the stably transfected human alpha 1a cell line (ATCC CRL 11140) were used to identify compounds that bind to the human alpha 1a adrenergic receptor. These competition binding reactions (total volume=200 μl) contained 50 mM Tris-HCl pH. 7.4, 5 mM EDTA, 150 mM NaCl, 100 pM [^125I]-HEAT, membranes prepared from the alpha 1a cell line and increasing amounts of unlabeled ligand. Reactions were incubated at room temperature for one hour with shaking. Reactions were filtered onto Whatman GF/C glass fiber filters with a Inotec 96 well cell harvester. Filters were washed three times with ice cold buffer and bound radioactivity was determined (Ki).
row,SMILES,pKi
1,"Cc1ccc(C2(c3ccc(C)cc3)NC(=O)N(CCCN3CCC4(CC3)c3ccccc3-c3ccccc34)C2=O)cc1 [Example 4, 1′-[3-(5,5-Bis-p-tolyl-2,4-dioxoimidazolidin-3-yl)propyl]spirofluorene-9,4′-piperidine]",> 7.70
2,"O=C(NCCCN1CCC2(CC1)c1ccccc1-c1ccccc12)N1C(=O)OC[C@@H]1c1ccc(F)c(F)c1 [Example 6, 1′-{3-[(4S)-(3,4-Difluorophenyl)-2-oxooxazolidin-3-carbonylamino]propyl}spirofluorene-9,4′-piperidine]",> 7.70
3,"COCC1=C(C(=O)OC)[C@H](c2ccc(F)c(F)c2)N(C(=O)NCCCN2CCC3(CC2)c2ccccc2-c2ccccc23)C(=O)N1 [Example 8, 1,2,3,6-tetrahydro-1-[(spirofluorene-9,4′-piperidin-1′-yl)propyl]aminocarbonyl-5-methoxycarbonyl-4-methoxymethyl-6(S)-(3,4-difluorophenyl)-2-oxopyrimidine]",> 7.70
4,"Cc1ccc(C2(c3ccc(C)cc3)NC(=O)N(CCCN3CCC4(CC3)c3ccccc3-c3ccc(Br)cc34)C2=O)cc1 [Example 10, 1′-[3-(5,5-Bis-p-tolyl-2,4-dioxoimidazolidin-3-yl)propyl]-2-bromospirofluorene-9,4′-piperidine]",> 7.70
5,"COCC1=C(C(=O)OC)[C@H](c2ccc(F)c(F)c2)N(C(=O)NCCCN2CCC3(CC2)c2ccccc2-c2ccc(F)cc23)C(=O)N1 [Example 14, 1,2,3,6-tetrahydro-1-[((2-fluorospirofluorene-9,4′-piperidin)-1′-yl)propyl]aminocarbonyl-5-methoxycarbonyl-4-methoxymethyl-6(S)-(3,4-difluorophenyl)-2-oxopyrimidine]",> 7.70
6,"O=C(NCCCN1CCC2(CC1)c1ccccc1[S+]([O-])c1ccccc12)N1C(=O)OC[C@@H]1c1ccc(F)c(F)c1 [Example 26, 1′-{3-[(4S)-(3,4-Difluorophenyl)-2-oxooxazolidin-3-carbonylamino]propyl}-(10-oxo-spirothioxanthene-9,4′-piperidine)]",> 7.70
7,"COCC1=C(C(=O)OC)[C@H](c2ccc(F)c(F)c2)N(C(=O)NCCCN2CCC3(CC2)c2ccccc2[S+]([O-])c2ccccc23)C(=O)N1 [Example 27, 1,2,3,6-tetrahydro-1-[(10-oxo-spirothioxanthene-9,4′-piperidin-1′-yl)propyl]aminocarbonyl-5-methoxycarbonyl-4-methoxymethyl-6(S)-(3,4-difluorophenyl)-2-oxopyrimidine]",> 7.70
8,"O=C(NCCCN1CCC2(CC1)c1ccccc1S(=O)(=O)c1ccccc12)N1C(=O)OC[C@@H]1c1ccc(F)c(F)c1 [Example 32, 1′-{3-[(4S)-(3,4-Difluorophenyl)-2-oxooxazolidin-3-carbonylamino]propyl}-(10,10-dioxo-spirothioxanthene-9,4′-piperidine)]",> 7.70
9,"COCC1=C(C(=O)OC)[C@H](c2ccc(F)c(F)c2)N(C(=O)NCCCN2CCC3(CC2)c2ccccc2S(=O)(=O)c2ccccc23)C(=O)N1 [Example 33, 1,2,3,6-tetrahydro-1-[(10,10-dioxo-spirothioxanthene-9,4′-piperidin-1′-yl)propyl]aminocarbonyl-5-methoxycarbonyl-4-methoxymethyl-6(S)-(3,4-difluorophenyl)-2-oxopyrimidine]",> 7.70
10,"O=C(NCCCN1CCC2(CC1)c1ccccc1Oc1ccc(Cl)cc12)N1C(=O)OC[C@@H]1c1ccc(F)c(F)c1 [Example 40, 1′-{3-[(4S)-(3,4-Difluorophenyl)-2-oxooxazolidin-3-carbonylamino]propyl}-2-chlorospiroxanthene-9,4′-piperidine]",> 7.70
11,"O=C(NCCCN1CCC2(CC1)c1cc(Cl)ccc1Oc1ccc(Cl)cc12)N1C(=O)OC[C@@H]1c1ccc(F)c(F)c1 [Example 42, 1′-{3-[(4S)-(3,4-Difluorophenyl)-2-oxooxazolidin-3-carbonylamino]propyl}-2,7-dichlorospiroxanthene-9,4′-piperidine]",> 7.70
12,"O=C(NCCCN1CCC2(CC1)c1cc(F)ccc1Oc1ccc(F)cc12)N1C(=O)OC[C@@H]1c1ccc(F)c(F)c1 [Example 44, 1′-{3-[(4S)-(3,4-Difluorophenyl)-2-oxooxazolidin-3-carbonylamino]propyl}-2,7-difluorospiroxanthene-9,4′-piperidine]",> 7.70
13,COCC1=C(C(=O)OC)[C@H](c2ccc(F)c(F)c2)N(C(=O)NCCCN2CCC3(CC2)c2ccccc2-c2ncccc23)C(=O)N1 [Example 49],> 7.70
14,"COCC1=C(C(=O)OC)[C@H](c2ccc(F)c(F)c2)N(C(=O)NCCCN2CCC3(CC2)c2ccccc2-c2cccnc23)C(=O)N1 [Example 53, 1,2,3,6-tetrahydro-1-[3-((spiro(9H-indeno[2,1-b]pyridine)-9,4′-piperidin)-1′-yl)propylaminocarbonyl]-5-methoxycarbonyl-4-methoxymethyl-6(S)-(3,4-difluorophenyl)-2-oxopyrimidine]",> 7.70
15,"O=C(NCCCN1CCC2(CC1)c1ccccc1CCc1ccccc12)N1C(=O)OC[C@@H]1c1ccc(F)c(F)c1 [Example 57, 1′-{3-[4(S)-(3,4-difluorophenyl)-2-oxooxazolidin-3-carbonylamino]-propyl}-(10,11-dihydrospiro-5H-dibenzo[a,d]cycloheptene)-5,4′-piperidine]",> 7.70
16,"O=C1OC[C@H](c2ccc(F)c(F)c2)N1CCCCCN1CCC2(CC1)c1ccccc1CCc1ccccc12 [Example 58, 1′-{5-[4(S)-(3,4-difluorophenyl)-2-oxooxazolidin-3-yl]-pentyl}-(10,11-dihydrospiro-5H-dibenzo[a,d]cycloheptene)-5,4′-piperidine]",> 7.70

# Test system: not given
# Experiment: not given
# Details: not given
row,SMILES,melting point [°C]
1,O=C1OCC(c2ccc(F)c(F)c2)N1CCCCN1CCC2(CC1)c1ccccc1Sc1ccccc12 (stereo not shown) (as salt: HCl),97 to 132
2,O=C(NCCCN1CCC2(CC1)c1ccccc1Sc1ccccc12)N1C(=O)OC[C@@H]1c1ccc(F)c(F)c1 (as salt: HCl),140 to 176
3,COCC1=C(C(=O)OC)C(c2ccc(F)c(F)c2)N(C(=O)NCCCN2CCC3(CC2)c2ccccc2Sc2ccccc23)C(=O)N1 (stereo not shown) (as salt: HCl),140 to 170
4,"O=C1OC[C@H](c2ccc(F)c(F)c2)N1CCCCCN1CCC2(CC1)c1ccccc1Sc1ccccc12 (as salt: HCl) [Example 19, 4-(S)-(3,4-Difluorophenyl)-3-[5-(spirothioxanthen-9,4′-piperidin-1′-yl)-pentyl]-oxazolidin-2-one]",90 to 130
5,"O=C1OC[C@H](c2ccc(F)c(F)c2)N1CCCCCCN1CCC2(CC1)c1ccccc1Sc1ccccc12 (as salt: HCl) [Example 20, 4-(S)-(3,4-Difluorophenyl)-3-[6-(spirothioxanthen-9,4′-piperidin-1′-yl)-hexyl]-oxazolidin-2-one]",90 to 130
6,"O=C(NCCCN1CCC2(CC1)c1ccccc1[S+]([O-])c1ccccc12)N1C(=O)OC[C@@H]1c1ccc(F)c(F)c1 (as salt: HCl) [Example 26, 1′-{3-[(4S)-(3,4-Difluorophenyl)-2-oxooxazolidin-3-carbonylamino]propyl}-(10-oxo-spirothioxanthene-9,4′-piperidine)]",184 to 193
